Assay results: ChEMBL document CHEMBL1201862, “PubChem BioAssay data set” (2004)
Calls of active or inactive are those of the source.

Tests used:
[1] = HGIII-sPLA2 enzyme inhibition potency – biochemical, QFRET, IC50, dose response (AID 743457);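 further: green fluorescence rise as the enzyme cleaves BODIPY PC-A2 in liposomes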
[2] = MITF: Counter assay: A375 proliferation Measured in Cell-Based System Using Plate Reader - 2084-03_Inhibitor_Dose_DryPowder_Activity_Set8.; type: functional; conditions: A-375
[3] = inhibitors of TRPM1-promoter reporter in SK-MEL-5 – cell-based, luciferase, dry powder, set 8, MITF inhibitor project, dose response (AID 624430); type: functional
[4] = MITF Orthogonal Assay: SK-MEL-5 CTG Assay Measured in Cell-Based System Using Plate Reader - 2084-02_Inhibitor_Dose_DryPowder_Activity_Set7.; type: functional
[5] = Late stage assay provider results from the probe development effort to identify selective inhibitors of heat shock protein 90 (HSP90): Absorbance-based cell proliferation assay in SKBR3 cells.; type: functional; conditions: SK-BR-3
[6] = Late stage assay provider results from the probe development effort to identify selective inhibitors of heat shock protein 90 (HSP90): Absorbance-based cell proliferation assay in MCF7 cells.; type: functional
[7] = target: Histone-lysine N-methyltransferase NSD2 (Homo sapiens, UniProt O96028); type: biochemical
[8] = activation of miR-122 Renilla sensor silencing – cell-based, Huh7 psiCHECK-miR122, Renilla luciferase, cherry-picked, dose response (AID 651956); type: functional;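 further: huh7 hepatoma cells stably carrying a psiCHECK-2 miR-122 sensor plasmid; renilla luciferase signal reporting endogenous miR-122 activity after 48 h compound exposure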
[9] = LMP1-induced NF-kB luciferase signal inhibition – cell-based, EBV LMP1, dry powder, set 2, dose response (AID 624361); type: functional
[10] = inhibitors of EBV LMP1 NF-kappaB signaling – cell-based, luciferase reporter, luminescence, dry powder, set 2, dose response (AID 624376); type: functional
[11] = TNFa-induced NF-kB reporter signal decrease – HEK293 LMP1 reporter cells, dry powder, set 2, selectivity assay for EBV LMP1 NF-kB inhibitor project, dose response (AID 624369); type: functional
[12] = viability loss in HEK293 kidney cells – cell-based, cherry-picks, set 5, cytotoxicity control, dose response (AID 1053117); type: functional
cells = type: functional, cell-based
[13] = A549 cell cytotoxicity, dose response, cytotoxicity control, plate reader, cherry-pick, antagonist series (AID 743412); type: functional, cell-based
[14] = blockers of bursicon-stimulated LGR2 cAMP reporter – cell-based, HEK293, CRE-luciferase reporter, cherry pick, set 2, dose response (AID 743343); type: functional;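 further: transfected cells were stimulated with diluted bursicon conditioned medium after compound addition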
[15] = target: T1, Nuclear receptor subfamily 0 group B member 1 (Homo sapiens, UniProt P51843); type: functional, cell-based;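 further: HEK293T cells transfected with SF-1 and DAX-1 plus StAR promoter luciferase reporter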
T1 sequence (P51843 whole entry): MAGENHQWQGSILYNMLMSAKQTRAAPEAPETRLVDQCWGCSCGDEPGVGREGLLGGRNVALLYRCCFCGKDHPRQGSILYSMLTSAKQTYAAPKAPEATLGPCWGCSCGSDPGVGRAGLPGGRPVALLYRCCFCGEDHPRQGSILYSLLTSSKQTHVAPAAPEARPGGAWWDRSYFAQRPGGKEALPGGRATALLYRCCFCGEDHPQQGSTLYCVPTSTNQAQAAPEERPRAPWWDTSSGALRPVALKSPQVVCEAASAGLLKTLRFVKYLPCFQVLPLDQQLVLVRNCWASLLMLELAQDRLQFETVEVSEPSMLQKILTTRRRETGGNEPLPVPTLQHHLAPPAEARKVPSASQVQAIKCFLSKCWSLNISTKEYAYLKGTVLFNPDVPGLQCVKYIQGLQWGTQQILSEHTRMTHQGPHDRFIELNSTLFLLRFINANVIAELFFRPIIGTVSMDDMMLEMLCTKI

[16] = blockade of melanocortin 4 receptor signaling – cell-based, plate reader, cherry pick, counter-screen for LGR2 antagonist project, dose response (AID 743444); type: functional;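 further: transfected HEK 293 cells stimulated with alpha-MSH peptide; potency of inhibitors of the alpha-MSH evoked signal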

Sequence of Histone-lysine N-methyltransferase NSD2 (O96028 whole entry): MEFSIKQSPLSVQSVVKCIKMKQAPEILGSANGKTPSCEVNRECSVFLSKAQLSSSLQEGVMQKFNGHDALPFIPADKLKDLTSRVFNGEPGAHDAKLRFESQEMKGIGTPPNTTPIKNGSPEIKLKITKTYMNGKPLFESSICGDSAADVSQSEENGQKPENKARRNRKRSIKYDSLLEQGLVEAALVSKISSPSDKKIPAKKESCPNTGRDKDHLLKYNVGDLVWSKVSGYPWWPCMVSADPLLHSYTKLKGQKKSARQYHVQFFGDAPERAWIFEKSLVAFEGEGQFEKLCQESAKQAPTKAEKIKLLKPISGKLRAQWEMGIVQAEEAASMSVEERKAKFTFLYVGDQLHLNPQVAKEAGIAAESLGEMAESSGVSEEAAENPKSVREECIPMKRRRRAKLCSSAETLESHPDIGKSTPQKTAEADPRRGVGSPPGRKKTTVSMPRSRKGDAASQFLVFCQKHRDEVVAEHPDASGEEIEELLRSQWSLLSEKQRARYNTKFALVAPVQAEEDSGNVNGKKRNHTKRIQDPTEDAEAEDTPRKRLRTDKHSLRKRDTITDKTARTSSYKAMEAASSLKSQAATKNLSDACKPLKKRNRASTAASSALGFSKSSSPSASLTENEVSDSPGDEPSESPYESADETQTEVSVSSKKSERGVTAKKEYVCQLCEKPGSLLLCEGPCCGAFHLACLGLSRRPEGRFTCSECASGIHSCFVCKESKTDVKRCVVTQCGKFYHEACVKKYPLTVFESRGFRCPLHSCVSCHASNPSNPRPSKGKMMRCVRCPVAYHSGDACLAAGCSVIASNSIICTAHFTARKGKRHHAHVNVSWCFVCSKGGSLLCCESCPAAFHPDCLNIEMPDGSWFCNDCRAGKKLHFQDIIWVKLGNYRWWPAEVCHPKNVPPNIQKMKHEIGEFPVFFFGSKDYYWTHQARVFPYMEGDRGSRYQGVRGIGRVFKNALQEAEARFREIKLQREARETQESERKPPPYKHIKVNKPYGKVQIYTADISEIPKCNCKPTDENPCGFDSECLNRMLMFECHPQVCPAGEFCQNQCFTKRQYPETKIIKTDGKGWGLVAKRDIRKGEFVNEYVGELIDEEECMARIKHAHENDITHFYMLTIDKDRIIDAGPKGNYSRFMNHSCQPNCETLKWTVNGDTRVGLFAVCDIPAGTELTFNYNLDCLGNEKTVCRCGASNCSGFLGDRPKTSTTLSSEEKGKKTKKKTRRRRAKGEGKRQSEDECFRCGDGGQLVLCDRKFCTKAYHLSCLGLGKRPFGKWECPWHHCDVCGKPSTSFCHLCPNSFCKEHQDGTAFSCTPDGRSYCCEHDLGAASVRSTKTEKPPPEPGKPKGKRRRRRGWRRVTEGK

**Q.** For `Cc1cccc(-n2c(S)nnc2-c2ccoc2C)c1`, which IC50 [1] is on record?
**A.** Its IC50 is > 122 µM (inactive).

**Q.** Which AC50 [2] does the source give for `COc1ccc(NC2=C(C)C(=O)c3ccccc3C2=O)cc1` here?
**A.** Its AC50 is > 70 µM (inactive).

**Q.** What about the AC50 [3] of the same compound?
**A.** The AC50 was 14.3 µM (active).

**Q.** And the AC50 [4]?
**A.** The AC50 was 0.533 µM (active).

**Q.** For `Cc1cccc(NC(=O)c2coc(=O)c(Br)c2)n1`, which IC50 [5] is on record?
**A.** Its IC50 is 45.8 µM (inactive).

**Q.** What about the IC50 [6] of the same compound?
**A.** Its IC50 is 27.3 µM (inactive).

**Q.** Which AC50 [7] does the source give for `COCC(C)OC(=O)/C(C#N)=C\c1coc2ccc(C)cc2c1=O` (stereo unspecified) here?
**A.** The AC50 was 11.9 µM (active).

**Q.** For `CC(C)(C)c1ccc(NC2=CC(=O)c3ccccc3C2=O)cc1`, which AC50 [2] is on record?
**A.** Its AC50 is > 70 µM (inactive).

**Q.** And the AC50 [3]?
**A.** The AC50 was 13.9 µM (active).

**Q.** What about the AC50 [4] of the same compound?
**A.** Its AC50 is 3.03 µM (active).

**Q.** Which AC50 [8] does the source give for `CN1C(=O)c2cc(NC(=O)c3ccc(C(F)(F)F)cc3)ccc2OC[C@@H]2O[C@H](CC(=O)NC3Cc4ccccc4C3)CC[C@H]21` here?
**A.** The AC50 was 15.5 µM (active).

**Q.** And the AbsAC35 [9]?
**A.** The AbsAC35 was 52.78 µM.

**Q.** And the AbsAC35 [10]?
**A.** The AbsAC35 was 100.28 µM.

**Q.** What about the AbsAC35 [11] of the same compound?
**A.** Its AbsAC35 is 229.94 µM.

**Q.** For `CO[C@H]1CN(C)C(=O)c2cc(NC(=O)Nc3cc(Cl)cc(Cl)c3)ccc2OC[C@@H](C)NC[C@@H]1C`, which AC50 [12] is on record?
**A.** The AC50 was > 52 µM (inactive).

**Q.** For `Sc1nnc(-c2ccc(Cl)cc2)n1-c1ccc2c(c1)OCCO2`, which IC50 [1] is on record?
**A.** Its IC50 is > 122 µM (inactive).

**Q.** What does the source list for `COc1ccc(-c2cn3cc(C)ccc3n2)cc1F`?
**A.** IC50 (cells): > 67.6 µM (inactive); AC50 [13]: 30.9 µM (active); AC50 [14]: 3 µM (active); IC50 [15]: > 67.6 µM (inactive); AC50 [16]: 2.87 µM (active)
